Assay results taken from ChEMBL document CHEMBL1201862, “PubChem BioAssay data set” (2004).
The source made the active and inactive calls.

Tests used:
[1] = target: Cytochrome P450 2C9 (Homo sapiens, UniProt P11712)
[2] = target: T1, Short transient receptor potential channel 4 (Mus musculus, UniProt Q9QUQ5); assay: mouse TRPC4 channel inhibitors, dose response, cell-based, HEK293 TRPC4/mu-opioid, Fluo-4 calcium (AID 434942); type: functional;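 also: potency of inhibitors blocking the TRPC4 calcium response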
T1 sequence (Q9QUQ5 whole entry): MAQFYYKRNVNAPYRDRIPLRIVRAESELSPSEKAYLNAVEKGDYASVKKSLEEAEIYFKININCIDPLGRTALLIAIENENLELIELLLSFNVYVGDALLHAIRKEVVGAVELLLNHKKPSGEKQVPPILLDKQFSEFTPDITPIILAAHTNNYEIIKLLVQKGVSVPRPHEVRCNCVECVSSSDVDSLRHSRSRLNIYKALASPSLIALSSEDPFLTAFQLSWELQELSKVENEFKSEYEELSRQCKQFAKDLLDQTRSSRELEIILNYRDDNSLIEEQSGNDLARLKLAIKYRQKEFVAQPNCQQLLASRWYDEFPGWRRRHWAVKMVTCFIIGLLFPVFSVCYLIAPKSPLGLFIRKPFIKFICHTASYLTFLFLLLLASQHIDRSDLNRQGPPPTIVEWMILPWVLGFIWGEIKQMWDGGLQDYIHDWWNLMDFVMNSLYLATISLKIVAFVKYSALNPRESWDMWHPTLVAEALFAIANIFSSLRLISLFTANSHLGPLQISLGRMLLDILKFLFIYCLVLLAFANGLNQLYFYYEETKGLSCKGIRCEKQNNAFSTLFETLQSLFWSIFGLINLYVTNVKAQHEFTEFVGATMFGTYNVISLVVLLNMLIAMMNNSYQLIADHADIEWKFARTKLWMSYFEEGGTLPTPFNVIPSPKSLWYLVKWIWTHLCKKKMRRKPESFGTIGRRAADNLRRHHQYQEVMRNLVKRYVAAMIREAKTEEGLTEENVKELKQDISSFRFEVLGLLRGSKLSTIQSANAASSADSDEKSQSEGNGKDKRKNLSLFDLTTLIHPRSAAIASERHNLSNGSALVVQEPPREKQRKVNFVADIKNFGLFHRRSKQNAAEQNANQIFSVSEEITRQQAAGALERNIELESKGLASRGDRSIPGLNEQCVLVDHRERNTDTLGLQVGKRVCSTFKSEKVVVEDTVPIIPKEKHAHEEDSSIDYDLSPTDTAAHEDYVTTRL

[3] = target: T2, DNA repair and recombination protein RAD54-like (Homo sapiens, UniProt Q92698); assay: inhibitors of human RAD54 branch migration, confirmation, biochemical, fluorescence, cherry-picked samples, dose series (AID 651657); type: functional
T2 sequence (Q92698 whole entry): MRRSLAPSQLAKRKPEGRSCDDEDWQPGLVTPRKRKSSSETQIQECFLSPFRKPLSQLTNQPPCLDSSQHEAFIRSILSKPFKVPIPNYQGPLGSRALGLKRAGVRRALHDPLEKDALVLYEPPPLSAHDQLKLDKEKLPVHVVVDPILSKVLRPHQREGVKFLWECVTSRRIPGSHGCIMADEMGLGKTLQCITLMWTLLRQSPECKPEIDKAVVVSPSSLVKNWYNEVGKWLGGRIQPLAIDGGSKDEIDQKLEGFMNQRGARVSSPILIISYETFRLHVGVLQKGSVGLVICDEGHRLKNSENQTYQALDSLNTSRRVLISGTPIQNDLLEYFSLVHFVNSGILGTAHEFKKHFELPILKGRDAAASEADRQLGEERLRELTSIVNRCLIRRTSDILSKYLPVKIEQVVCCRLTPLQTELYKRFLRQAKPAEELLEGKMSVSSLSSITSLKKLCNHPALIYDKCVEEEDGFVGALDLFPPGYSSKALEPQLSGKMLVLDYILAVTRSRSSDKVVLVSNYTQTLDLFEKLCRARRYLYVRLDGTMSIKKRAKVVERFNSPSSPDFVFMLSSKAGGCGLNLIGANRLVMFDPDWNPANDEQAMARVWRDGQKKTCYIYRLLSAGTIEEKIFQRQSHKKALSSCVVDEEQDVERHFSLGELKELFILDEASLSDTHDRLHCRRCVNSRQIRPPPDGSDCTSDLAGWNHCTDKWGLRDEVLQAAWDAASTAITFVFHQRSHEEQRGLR

[4] = target: Cytochrome P450 2D6 (Homo sapiens, UniProt P10635);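 also: CYP2D6 member of a cytochrome P450 panel assay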
[5] = inhibitors of firefly luciferase expression or activity, dose response, H4 neuroglioma cells, luminescence (AID 1990); type: functional, cell-based
[6] = Luminescence Cell-Based Dose Response HTS to Identify Inhibitors of 5'UTR Stem-Loop Driven Prion Protein mRNA Translation in H4 Neuroglioblastoma Cells. [Related pubchem assays: 1827 (Project Summary), 1813 (Primary HTS)]; type: functional
[7] = inhibitors of SNCA 5'UTR-driven reporter translation, confirmation, H4 neuroglioma cells, luminescence (AID 1988); type: functional, cell-based
[8] = tested on: HEK293; assay: inhibitors of LMP1-driven NF-kB reporter, dose response, cell-based, HEK293, luciferase, cherry-pick (AID 588343); type: functional; settings: Homo sapiens
[9] = tested on: H9c2; assay: cells; type: functional, cell-based; settings: Rattus norvegicus, H9c2, Myocardium;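 also: confirmatory concentration-response retest of ultra-high-throughput screening hits for modulation of myocardial damage; cell death induced by hydrogen peroxide oxidative stress; compound pretreatment for 60 min then peroxide exposure for 2 h; potency is for protecting the cells against peroxide damage rather than for killing them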
[10] = tested on: HEK293; assay: NOD1 signaling inhibitors, primary screen, cell-based, luminescence, uHTS (AID 1578); type: functional; settings: Homo sapiens
[11] = tested on: HEK293; assay: cells; type: functional, cell-based; settings: Homo sapiens
[12] = tested on: HEK293; assay: cells; type: functional, cell-based; settings: Homo sapiens; remark: listed apart in the source
[13] = tested on: HEK293; assay: NOD2 signaling inhibitors in MDP-stimulated cells, cell-based, uHTS, luminescence (AID 2001); type: functional; settings: Homo sapiens
[14] = target: T1, Short transient receptor potential channel 4; assay: mouse TRPC4 channel activators, dose response, cell-based, HEK293 TRPC4/mu-opioid, Fluo-4 calcium (AID 434937); type: functional
[15] = target: T3, Heat shock factor protein 1 (Mus musculus, UniProt P38532); assay: HSF1 potentiators in luciferase reporter cells, confirmation, cell-based, NIH3T3, luminescence, dose retest (AID 435004); type: functional;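 also: stress induced by proteasome inhibitor MG132 added 30 min after compound; luciferase reporter driven by HSF1 response element in NIH3T3 cells; actives raise luminescence as potentiators of the MG132 stress response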
T3 sequence (P38532 whole entry): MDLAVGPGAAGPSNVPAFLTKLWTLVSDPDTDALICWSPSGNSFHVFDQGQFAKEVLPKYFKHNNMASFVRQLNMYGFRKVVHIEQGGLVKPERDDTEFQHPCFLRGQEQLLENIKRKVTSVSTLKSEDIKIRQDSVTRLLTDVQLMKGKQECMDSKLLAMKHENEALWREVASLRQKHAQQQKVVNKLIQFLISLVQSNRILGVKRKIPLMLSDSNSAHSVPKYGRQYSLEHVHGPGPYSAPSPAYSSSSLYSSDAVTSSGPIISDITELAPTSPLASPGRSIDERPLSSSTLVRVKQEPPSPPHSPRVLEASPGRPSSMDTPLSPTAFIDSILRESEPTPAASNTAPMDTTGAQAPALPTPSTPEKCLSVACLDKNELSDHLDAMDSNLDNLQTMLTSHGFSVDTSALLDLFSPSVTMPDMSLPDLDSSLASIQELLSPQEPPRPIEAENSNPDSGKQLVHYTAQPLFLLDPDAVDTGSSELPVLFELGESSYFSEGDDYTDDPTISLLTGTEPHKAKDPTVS

[16] = target: Luciferin 4-monooxygenase (Photinus pyralis, UniProt P08659); assay: firefly luciferase enzyme inhibitors, dose response, biochemical, luminescence (AID 1891)
[17] = Luminescence Cell-Based Dose Confirmation HTS to Identify Inhibitors of Platelet Dense Granule Release. [Related pubchem assays: 1663 (Primary HTS), 1678 (Summary of Project)]; type: functional
[18] = target: T4, Histone-lysine N-methyltransferase NSD2 (Homo sapiens, UniProt O96028); type: biochemical
T4 sequence (O96028 whole entry): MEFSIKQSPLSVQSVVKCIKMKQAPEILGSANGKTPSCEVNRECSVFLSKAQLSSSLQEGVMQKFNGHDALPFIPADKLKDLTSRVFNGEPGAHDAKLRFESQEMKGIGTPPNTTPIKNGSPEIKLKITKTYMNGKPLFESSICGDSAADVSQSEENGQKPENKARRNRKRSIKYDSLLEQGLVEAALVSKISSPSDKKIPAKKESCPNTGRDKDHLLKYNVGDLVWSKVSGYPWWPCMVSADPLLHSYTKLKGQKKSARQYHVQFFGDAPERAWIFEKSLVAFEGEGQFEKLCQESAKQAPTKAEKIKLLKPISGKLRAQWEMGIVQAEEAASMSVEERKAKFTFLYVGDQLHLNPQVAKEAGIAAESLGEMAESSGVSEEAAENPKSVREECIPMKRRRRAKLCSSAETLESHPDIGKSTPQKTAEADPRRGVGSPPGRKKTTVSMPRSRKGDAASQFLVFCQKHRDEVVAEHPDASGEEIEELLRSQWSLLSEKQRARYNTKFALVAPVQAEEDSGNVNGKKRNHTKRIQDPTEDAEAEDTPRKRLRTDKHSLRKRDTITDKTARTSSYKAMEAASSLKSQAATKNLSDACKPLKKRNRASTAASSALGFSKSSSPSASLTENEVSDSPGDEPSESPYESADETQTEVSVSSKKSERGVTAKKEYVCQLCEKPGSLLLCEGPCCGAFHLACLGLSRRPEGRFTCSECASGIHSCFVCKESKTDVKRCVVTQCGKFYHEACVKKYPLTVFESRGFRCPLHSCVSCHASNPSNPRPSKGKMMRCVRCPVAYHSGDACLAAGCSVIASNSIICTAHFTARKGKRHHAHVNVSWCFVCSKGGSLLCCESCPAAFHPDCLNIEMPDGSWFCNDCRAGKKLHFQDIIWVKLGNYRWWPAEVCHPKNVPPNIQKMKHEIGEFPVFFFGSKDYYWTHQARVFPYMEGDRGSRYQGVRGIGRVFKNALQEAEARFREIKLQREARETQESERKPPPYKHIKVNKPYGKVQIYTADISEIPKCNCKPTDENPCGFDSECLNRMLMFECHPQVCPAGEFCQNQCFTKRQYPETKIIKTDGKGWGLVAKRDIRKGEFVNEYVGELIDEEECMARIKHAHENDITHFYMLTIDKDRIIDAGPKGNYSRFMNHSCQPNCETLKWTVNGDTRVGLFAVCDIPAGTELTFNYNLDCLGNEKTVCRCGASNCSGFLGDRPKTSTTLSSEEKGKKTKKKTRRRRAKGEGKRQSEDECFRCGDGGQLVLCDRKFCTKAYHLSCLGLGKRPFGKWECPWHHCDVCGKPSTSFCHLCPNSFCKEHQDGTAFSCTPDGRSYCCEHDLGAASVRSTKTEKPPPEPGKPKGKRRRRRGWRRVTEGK

[19] = inhibitors of HIV Env-driven cell fusion, dose response, cherry-pick (AID 652057); type: functional, cell-based
[20] = inhibitors of clade B AD8 Env fusion, dose response, cell-based, cherry-pick (AID 652062); type: functional;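 also: luciferase signal from cell-cell fusion driven by HIV-1 clade B AD8 Env; potency is for inhibitors of fusion seen as a drop in luminescence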
[21] = target: Cytochrome P450 2C19 (Homo sapiens, UniProt P33261); assay: Cytochrome panel assay with activity outcomes. Panel member name: p450-cyp2c19 Compounds with AC50 equal or less than 10 uM are considered active; type: functional; settings: read-out: AC50
Chain of Cytochrome P450 2C19 (P33261 whole entry): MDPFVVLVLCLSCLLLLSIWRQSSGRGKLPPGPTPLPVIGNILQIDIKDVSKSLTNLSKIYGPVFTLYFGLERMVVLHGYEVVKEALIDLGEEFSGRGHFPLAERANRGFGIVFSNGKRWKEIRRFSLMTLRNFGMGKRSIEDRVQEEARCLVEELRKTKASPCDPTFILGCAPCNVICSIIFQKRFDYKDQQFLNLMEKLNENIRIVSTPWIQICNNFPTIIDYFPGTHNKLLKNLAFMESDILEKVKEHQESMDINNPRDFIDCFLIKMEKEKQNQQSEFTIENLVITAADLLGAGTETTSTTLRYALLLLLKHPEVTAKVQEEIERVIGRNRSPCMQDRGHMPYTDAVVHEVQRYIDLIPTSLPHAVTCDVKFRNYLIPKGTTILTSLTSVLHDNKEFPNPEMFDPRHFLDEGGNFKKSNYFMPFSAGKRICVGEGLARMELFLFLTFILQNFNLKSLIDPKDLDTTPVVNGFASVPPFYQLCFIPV

Chain of Cytochrome P450 2C9 (P11712 whole entry): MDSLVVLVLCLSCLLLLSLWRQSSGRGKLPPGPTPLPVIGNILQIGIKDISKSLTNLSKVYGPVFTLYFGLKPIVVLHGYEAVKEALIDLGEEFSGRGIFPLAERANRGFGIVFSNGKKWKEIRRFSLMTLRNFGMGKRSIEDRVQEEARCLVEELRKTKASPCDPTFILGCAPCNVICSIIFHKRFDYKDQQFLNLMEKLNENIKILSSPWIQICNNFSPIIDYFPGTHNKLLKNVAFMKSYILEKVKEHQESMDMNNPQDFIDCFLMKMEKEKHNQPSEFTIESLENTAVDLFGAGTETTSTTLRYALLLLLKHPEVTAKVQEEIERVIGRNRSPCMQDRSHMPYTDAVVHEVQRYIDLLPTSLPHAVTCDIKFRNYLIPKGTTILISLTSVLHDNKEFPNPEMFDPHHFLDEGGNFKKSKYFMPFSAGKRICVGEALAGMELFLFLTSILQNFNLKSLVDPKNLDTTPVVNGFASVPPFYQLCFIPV
Chain of Cytochrome P450 2D6 (P10635 whole entry): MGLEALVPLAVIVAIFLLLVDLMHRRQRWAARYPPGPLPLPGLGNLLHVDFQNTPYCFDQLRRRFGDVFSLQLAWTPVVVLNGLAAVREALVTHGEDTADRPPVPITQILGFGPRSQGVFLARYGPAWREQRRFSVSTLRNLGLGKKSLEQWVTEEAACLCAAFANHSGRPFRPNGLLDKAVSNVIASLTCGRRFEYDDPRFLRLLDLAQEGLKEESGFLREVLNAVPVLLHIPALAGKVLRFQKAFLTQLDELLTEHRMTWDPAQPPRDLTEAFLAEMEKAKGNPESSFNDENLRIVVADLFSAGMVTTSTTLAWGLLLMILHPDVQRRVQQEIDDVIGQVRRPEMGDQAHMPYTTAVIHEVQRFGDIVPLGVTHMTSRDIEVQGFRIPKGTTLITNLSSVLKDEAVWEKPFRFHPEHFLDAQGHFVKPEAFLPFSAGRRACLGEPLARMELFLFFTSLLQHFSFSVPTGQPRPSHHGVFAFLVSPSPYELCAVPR
Chain of Luciferin 4-monooxygenase (P08659 whole entry): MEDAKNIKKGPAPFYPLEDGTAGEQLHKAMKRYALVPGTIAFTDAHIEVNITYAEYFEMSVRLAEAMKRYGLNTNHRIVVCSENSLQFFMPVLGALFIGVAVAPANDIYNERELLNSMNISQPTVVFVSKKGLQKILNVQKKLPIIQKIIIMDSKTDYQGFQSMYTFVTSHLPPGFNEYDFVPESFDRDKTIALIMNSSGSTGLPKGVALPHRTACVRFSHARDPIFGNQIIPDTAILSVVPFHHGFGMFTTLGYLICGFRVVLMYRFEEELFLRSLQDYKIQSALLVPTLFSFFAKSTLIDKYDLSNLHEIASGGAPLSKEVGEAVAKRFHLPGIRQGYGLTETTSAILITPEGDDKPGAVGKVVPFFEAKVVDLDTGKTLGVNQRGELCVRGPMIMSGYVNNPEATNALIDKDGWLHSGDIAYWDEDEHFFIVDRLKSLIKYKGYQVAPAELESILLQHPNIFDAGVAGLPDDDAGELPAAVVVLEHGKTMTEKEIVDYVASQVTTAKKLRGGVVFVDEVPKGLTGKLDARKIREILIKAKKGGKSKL

## CNCC[C@H](Oc1ccc(C(F)(F)F)cc1)c1ccccc1
[1]
  AC50: inactive

## Cc1ccc2nc(C)c3c(c2c1)N(c1ccc(F)cc1)CC3
[2]
  EC50: 3.76 µM (active)
[3]
  AC50: 97.9 µM (active)

## COc1ccc(C(C(=O)NC2CCCCC2)N2CCC3(CC2)OCCO3)cc1 (stereo unspecified)
[4]
  AC50: 0.316 µM (inconclusive)
[1]
  AC50: inconclusive

## Cc1cc(C(=O)COc2cccnc2[N+](=O)[O-])c(C)n1-c1ccccc1F
[5]
  EC50: 6.07 µM (active)
[6]
  EC50: 16.8 µM (active)
[7]
  EC50: 0.791 µM (active)
[8]
  AC50: 2.61 µM (active)

## COc1ccc(-c2csc(NC(=O)CCn3cnc4ccccc4c3=O)n2)cc1OC
[9]
  IC50: 27.9 µM (active)

## Cc1nc2cc(NC(=O)c3ccc([N+](=O)[O-])s3)ccc2s1
[5]
  EC50: < 0.1 µM (active)
[10]
  EC50: 3.16 µM (active)
[11]
  IC50: > 20 µM (inactive)
[6]
  EC50: 4.17 µM (active)
[7]
  EC50: 0.95 µM (active)
[12]
  IC50: > 20 µM (inactive)
[13]
  IC50: > 20 µM (inactive)

## CN(C)C1(CNC(=O)CC(NC(=O)c2ccccc2Cl)c2ccccc2)CCCCC1 (stereo unspecified)
[2]
  EC50: 0.299 µM (active)
[14]
  EC50: 0.668 µM (active)

## O=C(CCc1nc(O)c2ccccc2n1)N1CCN(S(=O)(=O)c2ccccc2Br)CC1
[9]
  IC50: > 79 µM (inactive)

## COc1ccc(N2CCN(S(=O)(=O)c3ccc4c(c3)CCCC4)CC2)c([N+](=O)[O-])c1
[1]
  AC50: inconclusive

## Cc1ccsc1C(=O)C1CCCN(Cc2ccccc2O)C1 (stereo unspecified)
[2]
  EC50: 4.22 µM (active)
[15]
  EC50: > 260 µM (inactive)

## Cc1cc(C)n(-c2nc(NCCN(C)C)c3c4c(sc3n2)COC(C)(C)C4)n1
[3]
  AC50: 100 µM (inactive)

## COc1ccc(-c2cn3ccc(C)cc3n2)cc1
[16]
  EC50: 1.13 µM (active)
[17]
  EC50: 9.75 µM (active)
[8]
  AC50: 2.62 µM (active)

## CNCCOc1ccccc1-c1ccccc1
[18]
  AC50: > 20 µM (inactive)

## O=C(CCCN1C(=O)c2cccc3cccc(c23)C1=O)N1CCN(c2ccccc2O)CC1
[9]
  IC50: 9.95 µM (active)

## CCOc1ccc2nc(NC(=O)CN3CCC(n4nnc5cc(F)ccc54)CC3)sc2c1
[9]
  IC50: > 79 µM (inactive)

## Cc1ccc2nc(O)c3cc(C(=O)NCCN4CCN(C)CC4)sc3c2c1
[3]
  AC50: 56.7 µM (active)

## O=C(CCCc1ccc(N(CCCl)CCCl)cc1)NCc1ccccc1
[8]
  AC50: 2.74 µM (active)

## N#CC1(NC(=O)COC(=O)Cn2[nH]c(=O)c3ccccc3c2=O)CCCCC1
[9]
  IC50: > 79 µM (inactive)

## C[C@H](CO)N1C[C@H](C)[C@@H](CN(C)C(=O)[C@H](Cc2ccccc2)N(C)C)OCc2ccccc2-c2c(n(C)c3ccccc23)C1=O
[19]
  AC50: 1.6 µM (active)
[20]
  AC50: 13.3 µM (active)

## CCN(CC)CCC/N=C(\C)C1=C(O)c2ccccc2C1=O
[18]
  AC50: > 20 µM (inactive)

## FC(F)(F)c1cc(C(F)(F)F)c2ccc(N/N=C/c3cccc(Cl)c3)nc2n1
[21]
  AC50: 17.8 µM (inconclusive)
[1]
  AC50: inconclusive

## COc1cccc(C(=O)NNC2=CC(=O)CC(C)(C)C2)c1
[21]
  AC50: 25.1 µM (inconclusive)
[4]
  AC50: 12.6 µM (inconclusive)
[1]
  AC50: inconclusive
